# Measured values taken from ChEMBL document CHEMBL1147148, “Cytotoxic withanolides from Tubocapsicum anomalum” (J Nat Prod, 2007).
# Columns and labels:
# [1] = system: HepG2; test: Cytotoxicity against human HepG2 cells by MTT method; assay type: cell-based
# [2] = Cytotoxicity against human Hep3B cells by MTT method; assay type: cell-based, Hep 3B2
# [3] = system: A549; test: Cytotoxicity against human A549 cells by MTT method; assay type: cell-based
# [4] = system: MDA-MB-231; test: Cytotoxicity against human MDA-MB-231 cells by MTT method; assay type: cell-based
# [5] = system: MRC5; test: Cytotoxicity against human MRC5 cells by MTT method; assay type: cell-based
# [6] = system: MCF7; test: Cytotoxicity against human MCF7 cells by MTT method; assay type: cell-based
SMILES,IC50 [1] [µg/mL],IC50 [2] [µg/mL],IC50 [3] [µg/mL],IC50 [4] [µg/mL],IC50 [5] [µg/mL],IC50 [6] [µg/mL]
CC1=C(C)C(=O)O[C@@H]([C@@H](C)[C@@]2(O)CC[C@H]3[C@@H]4C[C@H]5O[C@]56[C@@H](O)C=CC(=O)[C@]6(C)[C@H]4CC[C@@]32C)C1,0.64,0.8,0.88,0.99,0.81,1.98
CC1=C(C)C(=O)O[C@@H]([C@](C)(O)[C@@]2(O)CC[C@H]3[C@@H]4C[C@H]5O[C@]56[C@@H](O)C=CC(=O)[C@]6(C)[C@H]4CC[C@@]32C)C1,0.49,0.85,0.72,0.71,1.89,1.45
CC1=C(C)C(=O)O[C@@H]([C@@H](C)[C@@]2(O)CC[C@H]3[C@@H]4C[C@H](O)[C@]5(O)[C@@H](O)C=CC(=O)[C@]5(C)[C@H]4CC[C@@]32C)C1,> 20,7.19,8.01,13.5,,> 20
CC1=C(C)C(=O)O[C@@H]([C@](C)(O)[C@@]23O[C@@H]2C[C@H]2[C@@H]4C[C@H]5O[C@]56[C@@H](O)C=CC(=O)[C@]6(C)[C@H]4CC[C@@]23C)C1 [20-HYDROXYTUBOCAPSANOLIDE A],0.73,0.99,1.42,0.99,1.36,1.77
CC1=C(C)[C@H](O)[C@H]([C@@H](C)[C@@]23O[C@@H]2C[C@H]2[C@@H]4C[C@H]5O[C@]56[C@@H](O)C=CC(=O)[C@]6(C)[C@H]4CC[C@@]23C)OC1=O [23-HYDROXYTUBOCAPSANOLIDE A],0.44,0.49,0.79,1.19,0.9,2.05
C[C@@]12CC([C@@]3(O)CC[C@H]4[C@@H]5C[C@H]6O[C@]67[C@@H](O)C=CC(=O)[C@]7(C)[C@H]5CC[C@@]43C)[C@@H](C1)OC(=O)[C@]2(C)O (stereo partly drawn) [ANOMANOLIDE A],3.11,3.63,1.01,1.37,1.91,2.31
C[C@@]12CC([C@@]3(O)CC[C@H]4[C@@H]5C[C@H](O)[C@]6(O)[C@@H](O)C=CC(=O)[C@]6(C)[C@H]5CC[C@@]43C)[C@@H](C1)OC(=O)[C@]2(C)O (stereo partly drawn) [ANOMANOLIDE B],0.97,3.17,1.49,0.7,0.2,4.84
C[C@@]12CC([C@@]3(O)[C@H](O)C[C@H]4[C@@H]5C[C@H]6O[C@]67[C@@H](O)C=CC(=O)[C@]7(C)[C@H]5CC[C@@]43C)[C@@H](C1)OC(=O)[C@]2(C)O (stereo partly drawn) [ANOMANOLIDE C],4.41,1.85,2.8,1.58,,8.01
C[C@@]12CC([C@@]3(O)[C@H](O)C[C@H]4[C@@H]5C[C@H](Cl)[C@]6(O)[C@@H](O)C=CC(=O)[C@]6(C)[C@H]5CC[C@@]43C)[C@@H](C1)OC(=O)[C@]2(C)O (stereo partly drawn) [ANOMANOLIDE D],> 20,19,> 20,> 20,,> 20
C[C@@]12CC([C@@]3(O)[C@H](O)C[C@H]4[C@@H]5C[C@H](O)[C@]6(O)CC=CC(=O)[C@]6(C)[C@H]5CC[C@@]43C)[C@@H](C1)OC(=O)[C@]2(C)O (stereo partly drawn) [ANOMANOLIDE E],> 20,> 20,> 20,> 20,,> 20
C[C@@]12CC([C@@]3(O)[C@H](O)C[C@H]4[C@@H]5CC[C@]6(O)[C@@H](O)C=CC(=O)[C@]6(C)[C@H]5CC[C@@]43C)[C@@H](C1)OC(=O)[C@]2(C)O (stereo partly drawn) [ANOMANOLIDE F],> 20,> 20,> 20,> 20,,> 20
COc1cccc2c1C(=O)c1c(O)c3c(c(O)c1C2=O)C[C@@](O)(C(=O)CO)C[C@@H]3O[C@H]1C[C@H](N)[C@H](O)[C@H](C)O1 [DOXORUBICIN],0.46,0.45,0.42,0.19,0.77,
CC1=C(C)C(=O)O[C@@H]([C@@H](C)[C@@]23O[C@@H]2C[C@H]2[C@@H]4C[C@H]5O[C@]56[C@@H](O)C=CC(=O)[C@]6(C)[C@H]4CC[C@@]23C)C1 [TUBOCAPSANOLIDE A],0.86,0.42,0.47,0.22,0.73,1.47
CC1=C(C)C(=O)O[C@@H]([C@@H](C)[C@@]2(C)C3=C(C[C@H]2O)[C@@H]2C[C@H](O)[C@]4(O)[C@@H](O)C=CC(=O)[C@]4(C)[C@H]2CC3)C1 [TUBOCAPSENOLIDE F],> 20,15.1,6.04,8.41,,14.7
CC1=C(C)C(=O)O[C@@H]([C@@H](C)[C@@]2(C)C3=C(C[C@H]2O)[C@@H]2C[C@H](Cl)[C@]4(O)[C@@H](O)C=CC(=O)[C@]4(C)[C@H]2CC3)C1 [TUBOCAPSENOLIDE G],19.1,> 20,19.9,> 20,,> 20
C[C@]1(O)C[C@H]2OC(=O)[C@]1(C)C[C@H]2[C@@]1(O)[C@H](O)C[C@H]2[C@@H]3C[C@H](Cl)[C@]4(O)[C@@H](O)C=CC(=O)[C@]4(C)[C@H]3CC[C@@]21C [TUBONOLIDE A],5.09,6.54,5.91,> 20,,12
CC1=C(CO)C(=O)O[C@@H]([C@@H](C)[C@H]2CC[C@H]3[C@@H]4C[C@H]5O[C@]56[C@@H](O)C=CC(=O)[C@]6(C)[C@H]4CC[C@]23C)C1 [WITHAFERIN A],0.06,0.06,0.02,0.02,0.07,0.05
